Consider 3 compounds from article PMC3688284 (ACS chemical biology, 2011).

The target of series [1] is recombinant human wild type LRRK2 (Homo sapiens, UniProt Q5S007). As to the kind of experiment: TR-FRET-based kinase activity assay, wild type LRRK2. To be noted: read-out: IC50, human wild type LRRK2 activity, ATP 100 μM. The series is classed as biochemical. On the technique in general: Time-resolved FRET reads energy transfer from a long-lived donor to a nearby acceptor.

For the next series, the target named is G2019S LRRK2 (Homo sapiens, UniProt Q5S007, G2019S). As to the kind of experiment: TR-FRET-based kinase activity assay, G2019S LRRK2. It counts as biochemical. The conditions noted are these: read-out: IC50, G2019S LRRK2 activity, ATP 100 μM.
The nature of another series: Pharmacokinetics studies. The conditions noted are these: in vivo.
Series [2] has as its system rat primary cortical neurons transfected with LRRK2 R1441C. The series is classed as cell-based. The conditions noted are these: at higher concentrations.
The next series concerns human cortical neurons. The series can be described thus: AlamarBlue cytotoxicity assay in primary human cortical neurons. It counts as cell-based. To be noted: for Concentration at which overt cytotoxicity was seen: human cortical neurons. (In general: Resazurin is reduced to fluorescent resorufin, in cell work by metabolically active cells.)
Series [3] concerns LRRK2 G2019S-transfected human cortical neurons. The series can be described thus: Neurite morphology assay in primary human cortical neurons. The conditions noted are these: for EC50: read-out: EC50, attenuation of G2019S LRRK2-induced human neuronal injury.
For series [4], the system named is rat primary cortical neurons transfected with LRRK2 G2019S. The series is classed as cell-based.
Series [5] addresses LRRK2 (human K562 extracts) (Homo sapiens, UniProt Q5S007). As to the kind of experiment: la-S7 binding assay in human K562 extracts. To be noted: concentrations as high as 100 μM tested; 5 mg/mL protein.
Series [6] deals with mouse LRRK2 (mouse kidney lysate) (Mus musculus, UniProt Q5S006). The series can be described thus: Competition-binding assay with la-S7 matrix. The conditions noted are these: concentrations as high as 100 μM tested; 5 mg/mL protein.

As a reminder, the IC50 is the midpoint of a concentration-inhibition curve. A word on the EC50: it is the concentration needed to bring the measured effect to its halfway point.

Sequence of G2019S LRRK2 (Q5S007 whole entry G2019S): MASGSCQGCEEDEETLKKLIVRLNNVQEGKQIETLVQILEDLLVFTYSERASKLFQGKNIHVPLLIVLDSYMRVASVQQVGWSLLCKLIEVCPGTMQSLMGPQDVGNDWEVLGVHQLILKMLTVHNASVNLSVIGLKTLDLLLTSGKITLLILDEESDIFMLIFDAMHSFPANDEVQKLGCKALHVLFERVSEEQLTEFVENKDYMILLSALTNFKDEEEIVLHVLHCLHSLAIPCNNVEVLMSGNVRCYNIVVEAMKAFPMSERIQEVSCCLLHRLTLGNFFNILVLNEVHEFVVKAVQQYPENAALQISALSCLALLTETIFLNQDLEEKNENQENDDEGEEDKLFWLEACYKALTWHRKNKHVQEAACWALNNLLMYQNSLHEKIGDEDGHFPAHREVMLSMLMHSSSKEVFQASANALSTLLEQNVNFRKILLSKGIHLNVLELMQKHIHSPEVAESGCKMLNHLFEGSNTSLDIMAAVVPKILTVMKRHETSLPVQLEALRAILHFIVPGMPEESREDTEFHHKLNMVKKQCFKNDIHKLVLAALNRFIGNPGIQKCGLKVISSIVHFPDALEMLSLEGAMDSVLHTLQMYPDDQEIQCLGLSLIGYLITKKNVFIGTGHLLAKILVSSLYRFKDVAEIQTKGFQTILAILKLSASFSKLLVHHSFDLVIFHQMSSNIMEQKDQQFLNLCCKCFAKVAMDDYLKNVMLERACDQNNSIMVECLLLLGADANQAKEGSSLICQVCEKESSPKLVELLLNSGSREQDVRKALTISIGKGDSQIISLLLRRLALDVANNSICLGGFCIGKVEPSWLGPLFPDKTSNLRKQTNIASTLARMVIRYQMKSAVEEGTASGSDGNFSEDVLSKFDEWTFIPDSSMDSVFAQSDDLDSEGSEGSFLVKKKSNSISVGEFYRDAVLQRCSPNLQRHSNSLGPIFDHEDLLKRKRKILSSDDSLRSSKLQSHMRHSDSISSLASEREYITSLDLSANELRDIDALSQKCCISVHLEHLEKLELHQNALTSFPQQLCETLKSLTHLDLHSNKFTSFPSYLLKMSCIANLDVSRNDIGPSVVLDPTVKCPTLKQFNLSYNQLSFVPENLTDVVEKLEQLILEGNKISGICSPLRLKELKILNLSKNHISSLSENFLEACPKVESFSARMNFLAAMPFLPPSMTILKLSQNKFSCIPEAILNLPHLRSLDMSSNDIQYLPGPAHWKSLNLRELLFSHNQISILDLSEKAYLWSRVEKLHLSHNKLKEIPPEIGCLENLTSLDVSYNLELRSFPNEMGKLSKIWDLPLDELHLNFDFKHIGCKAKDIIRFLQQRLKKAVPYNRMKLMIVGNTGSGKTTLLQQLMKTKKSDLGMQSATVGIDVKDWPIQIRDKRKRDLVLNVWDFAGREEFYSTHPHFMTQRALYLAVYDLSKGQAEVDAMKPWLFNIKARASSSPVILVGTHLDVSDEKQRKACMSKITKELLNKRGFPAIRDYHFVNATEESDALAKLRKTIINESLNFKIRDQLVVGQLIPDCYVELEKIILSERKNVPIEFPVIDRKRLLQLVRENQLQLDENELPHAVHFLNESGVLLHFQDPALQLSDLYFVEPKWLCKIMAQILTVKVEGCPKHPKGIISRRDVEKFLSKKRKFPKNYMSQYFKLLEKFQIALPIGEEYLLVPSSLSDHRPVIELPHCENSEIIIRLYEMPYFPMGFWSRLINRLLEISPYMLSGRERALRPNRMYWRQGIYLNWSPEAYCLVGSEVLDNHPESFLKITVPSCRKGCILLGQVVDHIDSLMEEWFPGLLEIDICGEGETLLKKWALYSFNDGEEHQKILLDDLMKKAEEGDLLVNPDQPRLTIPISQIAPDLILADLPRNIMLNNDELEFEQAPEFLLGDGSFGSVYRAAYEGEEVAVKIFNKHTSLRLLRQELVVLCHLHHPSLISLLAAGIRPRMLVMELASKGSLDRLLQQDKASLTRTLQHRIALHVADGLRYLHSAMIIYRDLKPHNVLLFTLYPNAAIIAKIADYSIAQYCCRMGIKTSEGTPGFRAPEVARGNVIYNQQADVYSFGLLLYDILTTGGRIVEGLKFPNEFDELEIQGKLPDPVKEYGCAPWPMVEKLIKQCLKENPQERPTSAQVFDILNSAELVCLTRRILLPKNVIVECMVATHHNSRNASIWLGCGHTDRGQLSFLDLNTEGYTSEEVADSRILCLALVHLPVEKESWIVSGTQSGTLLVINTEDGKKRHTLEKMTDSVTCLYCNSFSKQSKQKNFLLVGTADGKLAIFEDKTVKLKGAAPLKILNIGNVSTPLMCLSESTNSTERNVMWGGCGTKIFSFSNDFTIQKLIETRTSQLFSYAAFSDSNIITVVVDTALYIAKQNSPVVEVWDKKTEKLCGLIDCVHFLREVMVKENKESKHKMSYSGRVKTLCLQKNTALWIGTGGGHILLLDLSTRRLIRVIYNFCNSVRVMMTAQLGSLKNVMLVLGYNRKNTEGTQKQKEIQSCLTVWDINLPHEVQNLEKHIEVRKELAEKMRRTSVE
Sequence of recombinant human wild type LRRK2 (Q5S007 whole entry): as the sequence (Q5S007 whole entry G2019S) above, with S2019G counted along it
Sequence of mouse LRRK2 (mouse kidney lysate) (Q5S006 1879-2146 limits assumed): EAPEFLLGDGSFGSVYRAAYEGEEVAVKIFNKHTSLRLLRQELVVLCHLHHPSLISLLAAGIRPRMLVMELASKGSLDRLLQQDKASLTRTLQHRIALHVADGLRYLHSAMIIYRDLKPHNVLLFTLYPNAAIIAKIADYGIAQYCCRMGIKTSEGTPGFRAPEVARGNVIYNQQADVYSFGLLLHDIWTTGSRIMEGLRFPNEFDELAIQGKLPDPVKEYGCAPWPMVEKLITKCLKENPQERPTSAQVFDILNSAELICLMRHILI
Sequence of LRRK2 (human K562 extracts) (Q5S007 whole entry): as the sequence (Q5S007 whole entry G2019S) above, with S2019G counted along it

With `COc1cc(N2CCOCC2)ccc1Nc1ncc(F)c(Nc2ccccc2NS(C)(=O)=O)n1` [CZC-25146], the IC50 in [1] came to 4.76 nM. Besides, on G2019S LRRK2, the IC50 was 6.87 nM. For the same compound, in the series “Pharmacokinetics studies”, the Brain penetration was ~ 4%, the Clearance stood at 38.3 mL/min/kg and the Volume of distribution turned out to be 5.4 L/kg. Besides, the “Block of R1441C-induced toxicity” value in [2] is “completely blocked”. Further, in the series with human cortical neurons, the “Concentration at which overt cytotoxicity was seen” value is 5000 nM. In addition, the “Concentrations at which no cytotoxicity was caused” value with human cortical neurons (seven-day treatment in culture) was “below 5 μM”. For the same compound, in [3], the “Concentration fully reversing G2019S LRRK2-induced injury to wild-type levels” value is recorded as 8 nM and the EC50 is approximately 4 nM. Also, in series [4] (at higher concentrations), the “Block of G2019S LRRK2-induced toxicity” value is “completely blocked”. Besides, the EC50 in series [4] (read-out: EC50, attenuation of G2019S LRRK2-induced neuronal injury and death, primary rodent cortical neurons) was approximately 100 nM.

For `COc1cc(N2CCOCC2)ccc1Nc1ncc(Cl)c(Nc2ccccc2NS(C)(=O)=O)n1` [CZC-54252], the IC50 in [1] was determined as 1.28 nM; at G2019S LRRK2, 1.85 nM. Also, the Brain penetration in the series “Pharmacokinetics studies” is given as ~ 4%. Besides, the “Concentration at which overt cytotoxicity was seen” value in the series with human cortical neurons is not below 1000 nM. In addition, the “Concentration fully reversing G2019S LRRK2-induced injury to wild-type levels” value in [3] turned out to be 1.6 nM. Moreover, the EC50 in [3] is approximately 1 nM.

Take `O=C1Nc2ccc(I)cc2/C1=C/c1cc(Br)c(O)c(Br)c1` [GW-5074]: the “IC50 in la-S7 binding assay, human K562 extracts” value in series [5] is given as “no valid IC50s”. For the same compound, the “IC50 in la-S7 binding assay, mouse kidney extracts” value in [6] was “no valid IC50s”.
